Laboratory results reported in patent US9416141B2 (University of Washington through its Center for …, priority 2012, dated 2016).
Where a name gives a salt, the structure may show the parent alone. Read-outs that look alike come from different tables or passages of the source.

Tested on: hair cells
Experiment: Hair cell toxicity assay in zebrafish (neomycin-induced hair cell death, DASPEI staining of neuromasts)
Format: in vivo
Details: for Emax at 2.8 µM: maximum observed @ 2.8 μM test compound; for Emax at 2.8 µM / Emax at 25 µM / Emax at 8.3 µM: 200 micromolar neomycin, read-out: Max HC Protection (HCmax, % hair cell survival); for EC50: zebrafish larvae 5-7 dpf, 1 h pre-treatment, then 200 micromolar neomycin + test compound 30 min, read-out: HC50 (concentration that would produce 50% hair cell survival); for Emax at 25 µM: maximum observed @ 25 μM test compound; for Emax at 8.3 µM: maximum observed @ 8.3 μM test compound
Description: Zebrafish are bred and newly fertilized embryos are collected the week prior and raised at 28.5° C. in petri dishes containing embryo medium. Newly hatched free-swimming larvae are fed paramecium and dry fish food at 4 days post fertilization (dpf) with lights on. For treatment, fish 5-7 dpf are transferred to cell culture baskets and place within a well of a 6-well plate containing 7 milliliters of 1× embryo medium. Typically, tests are done with ten fish per basket but work well with up to 50 fish. All treatment and wash volumes are 7 milliliters. • 1. Fish are pre-treated with test compound for 1 hour. […] Treat with 200 micromolar neomycin (neomycin sulfate, Sigma, St. Louis, Mo., catalog #N1142)+test compound for 30 minutes. • 3. Rinse fish briefly 4 times in embryo medium and add 700 μl of 0.05% DASPEI (2-{4-(dimethylamino)styryl}-N-ethylpyridinium iodide, Molecular Probes, Eugene, Oreg.) and allowed to stain for 15 minutes. • 4. Rinse twice in embryo medium and add 350 μl MS222 (0.55 ug/ml final concentration, 3-aminobenzoic acid ethyl ester, methansulfoneate salt, Sigma, St. Louis, Mo.) to anesthetize. • 5. View with epifluorescence dissecting microscope equipped with a DAPSEI filter set (excitation […], Chroma Technologies, Brattleboro, Vt.). For assessment of initial dose response curves, fish are transferred to wide depression slide with wide-bore pipette. The DASPEI staining of ten neuromasts (SO1, SO2, IO1, IO2, IO3, IO4, M2, MI1, MI2 and O2) on one side of an animal are evaluated. Each neuromast is scored for presence of DASPEI staining (score=2), reduced DASPEI staining (score=1) or absence of DASPEI staining (score=0). Total scores for an animal are tabulated, to give a composite score that can range from 0 to 20. Average scores and standard deviations are calculated for animals in each treatment group. Scores are normalized to control group (vehicle only, no drug, no neomycin) and expressed as % hair cell survival. HCmax is the maximum protection (hair cell survival) observed. • 6. If at least 50% hair cells survive, the HC50 (concentration that would produce 50% hair cell survival) is calculated as a linear extrapolation from the nearest concentrations of protective drug that produce hair cell survival below and above 50%. If less than 50% hair cells survive, the HC50 is not determined. 1× embryo media (standard lab EM): • 1 mM MgSO4, • 0.15 mM KH2PO4, • 0.05 mM Na2HPO4, • 1 mM CaCl2, • 0.5 mM KCl • 15 mM NaCl • 0.7 mM NaHCO3

| SMILES | EC50 (Danio rerio) [µM] | Emax at 25 µM (Danio rerio) [%] | also measured |
| --- | --- | --- | --- |
| CN1CCCC12CCc1c(sc(NC(=O)Nc3ccc(Cl)cc3)c1C(N)=O)C2 (racemic) [Example 111, (+/−)-2-[3-(4-chlorophenyl)ureido]-1′-methyl-5,7-dihydro-4H-spiro(benzo[b]thiophene-6,2′-pyrrolidine)-3-carboxamide hydrochloride] | 1 to 10 | – | Emax at 2.8 µM (Danio rerio): 55% |
| NC(=O)c1c(NC(=O)Nc2ccc(Cl)cc2)sc2c1CC[N+]1(CCOCC1)C2 [Example 146, 3′-Carbamoyl-2′-[3-(4-chlorophenyl)ureido]-5′,7′-dihydro-4′H-spiro[morpholine-4,6′-thieno[2,3-c]pyridin]-4-ium iodide] | 1 to 10 | 96 | – |
| C[N+]1(CCO)CCc2c(sc(NC(=O)Nc3ccc(Cl)cc3)c2C(N)=O)C1 (stereo not drawn) [Example 144, 3-Carbamoyl-2-[3-(4-chlorophenyl)ureido]-6-(2-hydroxyethyl)-6-methyl-4,5,6,7-tetrahydrothieno[2,3-c]pyridin-6-ium iodide] | 1 to 10 | 78 | – |
| NC(=O)c1c(NC(=O)Nc2ccc(Cl)cc2)sc2c1CCN(CCCNC(=O)CCc1ccccc1)C2 [Example 210, 2-{[(4-chlorophenyl)carbamoyl]amino}-6-[3-(3-phenylpropanamido)propyl]-4H,5H,6H,7H-thieno[2,3-c]pyridine-3-carboxamide] | < 1 | 99 | – |
| CCN1CCc2c(sc(NC(=O)Nc3ccc(Cl)cc3)c2-c2nnco2)C1 [Example 104, 1-(4-chlorophenyl)-3-[6-ethyl-3-(1,3,4-oxadiazol-2-yl)-4,5,6,7-tetrahydrothieno[2,3-c]pyridin-2-yl]urea hydrochloride] | – | 0 | – |
| COC(=O)C(C)(C)CN1CCc2c(sc(NC(=O)Nc3ccc(Cl)cc3)c2C(N)=O)C1 [Example 38, Methyl 3-{3-carbamoyl-2-[3-(4-chlorophenyl)ureido]-4,5-dihydrothieno[2,3-c]pyridin-6(7H)-yl}-2,2-dimethylpropanoate hydrochloride] | – | – | Emax at 2.8 µM (Danio rerio): 14% |
| CC(C)(C)OC(=O)CC[N+]1(C)CCc2c(sc(NC(=O)Nc3ccc(Cl)cc3)c2C(N)=O)C1 (stereo not drawn) [Example 151, 6-(3-tert-Butoxy-3-oxopropyl)-3-carbamoyl-2-[3-(4-chlorophenyl)ureido]-6-methyl-4,5,6,7-tetrahydrothieno[2,3-c]pyridin-6-ium iodide] | < 1 | – | Emax at 2.8 µM (Danio rerio): 105% |
| NC(=O)c1c(NC(=O)Nc2ccc(Cl)cc2)sc2c1CCN(C1CCNC1)C2 (racemic) [Example 7, (+/−)-2-[3-(4-Chlorophenyl)ureido]-6-(pyrrolidin-3-yl)-4,5,6,7-tetrahydrothieno[2,3-c]pyridine-3-carboxamide dihydrochloride] | 1 to 10 | 78 | – |
| C[N+]1(CC2CCCC2)CCc2c(sc(NC(=O)Nc3ccc(Cl)cc3)c2C(N)=O)C1 (stereo not drawn) [Example 153, 3-Carbamoyl-2-[3-(4-chlorophenyl)ureido]-6-(cyclopentylmethyl)-6-methyl-4,5,6,7-tetrahydrothieno[2,3-c]pyridin-6-ium iodide] | < 1 | – | Emax at 8.3 µM (Danio rerio): 98% |
| CCN1CCc2c(sc(NC(=O)Nc3ccc(F)c(F)c3)c2C(N)=O)C1 [Example 70, 2-[3-(3,4-Difluorophenyl)ureido]-6-ethyl-4,5,6,7-tetrahydrothieno[2,3-c]pyridine-3-carboxamide hydrochloride] | 1 to 10 | 64 | – |
| NC(=O)c1c(NC(=O)Nc2ccc(Cl)cc2)sc2c1CC1CCC2N1 (racemic) [Example 124, (+/−)-2-[3-(4-chlorophenyl)ureido]-5,6,7,8-tetrahydro-4H-5,8-epiminocyclohepta[b]thiophene-3-carboxamide hydrochloride] | – | – | EC50: < 1 µM |
| CCN1CCc2c(sc(NC(=O)Nc3cccc4nsnc34)c2C(N)=O)C1 [Example 80, 2-[3-(Benzo[c][1,2,5]thiadiazol-4-yl)ureido]-6-ethyl-4,5,6,7-tetrahydrothieno[2,3-c]pyridine-3-carboxamide hydrochloride] | – | – | Emax at 8.3 µM (Danio rerio): 36% |
| CCOC(=O)CC[N+]1(C)CCc2c(sc(NC(=O)Nc3ccc(Cl)cc3)c2C(N)=O)C1 (stereo not drawn) [Example 160, 3-Carbamoyl-2-[3-(4-chlorophenyl)ureido]-6-(3-ethoxy-3-oxopropyl)-6-methyl-4,5,6,7-tetrahydrothieno[2,3-c]pyridin-6-ium chloride iodide] | 1 to 10 | – | Emax at 2.8 µM (Danio rerio): 70% |
| CCCC[N+]1(C)CCc2c(sc(NC(=O)Nc3ccc(Cl)cc3)c2C(N)=O)C1 (stereo not drawn) [Example 219, 6-butyl-3-carbamoyl-2-{[(4-chlorophenyl)carbamoyl]amino}-6-methyl-4H,5H,6H,7H-thieno[2,3-c]pyridin-6-ium] | < 1 | 92 | – |
| NC(=O)c1c(NC(=O)Nc2ccc(Cl)cc2)sc2c1CCOC2 [Example 92, 2-[3-(4-Chlorophenyl)ureido]-5,7-dihydro-4H-thieno[2,3-c]pyran-3-carboxamide] | – | – | Emax at 2.8 µM (Danio rerio): 22% |
| CN1C2CCC1c1sc(NC(=O)Nc3ccc(Cl)cc3)c(C(N)=O)c1C2 (single isomer, unassigned; (+)) [Example 128, (+)-2-[3-(4-Chlorophenyl)ureido]-9-methyl-5,6,7,8-tetrahydro-4H-5,8-epiminocyclohepta[b]thiophene-3-carboxamide hydrochloride] | – | – | EC50 (hydrochloride): < 1 µM |
| CCN1CCc2c(sc(NC(=O)N(C)c3ccc(Cl)cc3)c2C(N)=O)C1 [Example 106, 2-[3-(4-chlorophenyl)-3-methylureido]-6-ethyl-4,5,6,7-tetrahydrothieno[2,3-c]pyridine-3-carboxamide hydrochloride] | – | 23 | – |
| NC(=O)c1c(NC(=O)Nc2ccc(Cl)cc2)sc2c1CCN(CC1CC1)C2 [Example 1, 2-[3-(4-chlorophenyl)ureido]-6-(cyclopropylmethyl)-4,5,6,7-tetrahydrothieno[2,3-c]pyridine-3-carboxamide hydrochloride] | 1 to 10 | 92 | – |
| CCN1CCc2c(sc(NC(=O)Nc3ccc(Cl)cc3)c2C(=O)N2CCOCC2)C1 [Example 95, 1-(4-chlorophenyl)-3-[6-ethyl-3-(morpholine-4-carbonyl)-4,5,6,7-tetrahydrothieno[2,3-c]pyridin-2-yl]urea hydrochloride] | 1 to 10 | 78 | – |
| CC(C)(C)CN1CCc2c(sc(NC(=O)Nc3ccc4ccccc4c3)c2C(N)=O)C1 [Example 36, 2-[3-(Naphthalen-2-yl)ureido]-6-neopentyl-4,5,6,7-tetrahydrothieno[2,3-c]pyridine-3-carboxamide hydrochloride] | – | – | Emax at 8.3 µM (Danio rerio): 13% |
| C[N+]1(C2CCc3c(sc(NC(=O)Nc4ccc(Cl)cc4)c3C(N)=O)C2)CCC1 (stereo not drawn) [Example 170, 1-{3-Carbamoyl-2-[3-(4-chlorophenyl)ureido]-4,5,6,7-tetrahydrobenzo[b]thiophen-6-yl}-1-methylazetidin-1-ium iodide] | 1 to 10 | 85 | – |
| CC(C)(O)C[N+]1(C)CCc2c(sc(NC(=O)Nc3ccc(Cl)cc3)c2C(N)=O)C1 (stereo not drawn) [Example 202, 3-Carbamoyl-2-[3-(4-chlorophenyl)ureido]-6-(2-hydroxy-2-methylpropyl)-6-methyl-4,5,6,7-tetrahydrothieno[2,3-c]pyridin-6-ium iodide] | < 1 | – | Emax at 8.3 µM (Danio rerio): 85% |
| CCN1CCc2c(sc(NC(=O)NCc3ccc(Cl)cc3)c2C(N)=O)C1 [Example 76, 2-[3-(4-Chlorobenzyl)ureido]-6-ethyl-4,5,6,7-tetrahydrothieno[2,3-c]pyridine-3-carboxamide hydrochloride] | – | 40 | – |
| NC(=O)c1c(NC(=O)Nc2ccc(Cl)cc2)sc2c1CCN(CCCNC(=O)CCc1ccc(C(F)(F)F)cc1)C2 [Example 218, 2-{[(4-chlorophenyl)carbamoyl]amino}-6-(3-{3-[4-(trifluoromethyl)phenyl]propanamido}propyl)-4H,5H,6H,7H-thieno[2,3-c]pyridine-3-carboxamide] | < 1 | – | Emax at 2.8 µM (Danio rerio): 103% |
